Test results as given in patent US20160046618A1, “Cyclopropyl Fused Thiazin-2-Amine Compounds as Beta-Secretase Inhibitors and Methods of Use” (AMGEN INC., priority 2014, published 2016).

Assays:
human recombinant BACE1 = human recombinant BACE1 (Homo sapiens (Human), UniProt P56817); assay: In vitro enzymatic BACE1 FRET assay; format: biochemical; conditions: read-out: IC50 IP (μM) BACE1 enzyme
Procedure, shortened: (§1)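 Read-out: dequenched fluorescence, excitation 488 nm, emission 590 nm, after proteolysis of a quenched peptide spanning the BACE cleavage site. Substrate at 50 nM, 1 h incubation, termination by Tris addition to neutral pH.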

human recombinant BACE2 = human recombinant BACE2 (Homo sapiens (Human), UniProt Q9Y5Z0); assay: In vitro enzymatic BACE2 FRET assay; format: biochemical; conditions: read-out: IC50 IP (μM) BACE2 enzyme
Procedure, shortened: as §1

[1] = tested on: Aβ40 in conditioned medium of cells stably expressing Amyloid Precursor Protein (APP); assay: In vitro BACE-1 cell-based assay (Aβ40 sandwich ELISA); conditions: read-out: IC50 IP (μM) BACE1 cell
Procedure, shortened: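 Read-out: time-resolved fluorescence (Streptavidin-Europium) of Aβ40 captured by pAb40 and detected with biotinylated 6E10 from supernatants of APP-stable cells. Cells were exposed to compound for 24 h, 10-point dose response, top dose 100 μM or 10 μM, 0.1% DMSO. IC50 fitted to percent of control.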

Recombinant Cat D = Recombinant Cat D (Homo sapiens (Human), UniProt P07339); assay: In vitro enzymatic Cathepsin D (Cat D) FRET assay; format: biochemical; conditions: read-out: IC50 IP (μM) CatD
Procedure, shortened: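 CHO-expressed enzyme; buffer 0.05 M citrate pH 3.5, 5 mM CHAPS, 10% DMSO final. Start with FRET substrate 20 nM, 1 h incubation, Tris stop (pH to neutral), fluorescence ex 500 nm/em 580 nm.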

Chain of Recombinant Cat D (P07339 65-412): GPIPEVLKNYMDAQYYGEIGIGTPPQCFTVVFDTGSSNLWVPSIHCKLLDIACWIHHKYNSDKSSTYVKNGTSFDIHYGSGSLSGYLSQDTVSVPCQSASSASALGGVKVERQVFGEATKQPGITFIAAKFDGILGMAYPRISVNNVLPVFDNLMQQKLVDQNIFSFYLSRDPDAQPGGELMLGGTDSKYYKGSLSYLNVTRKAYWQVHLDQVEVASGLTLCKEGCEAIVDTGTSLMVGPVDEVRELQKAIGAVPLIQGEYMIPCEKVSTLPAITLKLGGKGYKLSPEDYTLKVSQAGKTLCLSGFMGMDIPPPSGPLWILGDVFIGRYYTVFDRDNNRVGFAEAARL
Chain of human recombinant BACE2 (Q9Y5Z0 63-518): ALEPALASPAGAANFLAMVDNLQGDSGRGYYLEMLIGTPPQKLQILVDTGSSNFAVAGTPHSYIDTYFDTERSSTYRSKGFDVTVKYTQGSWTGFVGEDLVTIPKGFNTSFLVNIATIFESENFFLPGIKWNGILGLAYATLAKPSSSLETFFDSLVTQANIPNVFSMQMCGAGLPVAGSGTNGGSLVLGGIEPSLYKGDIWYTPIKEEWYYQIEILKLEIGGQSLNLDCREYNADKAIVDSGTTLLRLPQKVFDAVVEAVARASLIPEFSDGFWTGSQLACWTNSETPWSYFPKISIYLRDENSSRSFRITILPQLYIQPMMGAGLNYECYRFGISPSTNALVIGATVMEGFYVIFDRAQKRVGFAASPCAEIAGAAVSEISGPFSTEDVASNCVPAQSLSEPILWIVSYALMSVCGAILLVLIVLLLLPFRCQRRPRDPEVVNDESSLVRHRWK
Chain of human recombinant BACE1 (P56817 46-501): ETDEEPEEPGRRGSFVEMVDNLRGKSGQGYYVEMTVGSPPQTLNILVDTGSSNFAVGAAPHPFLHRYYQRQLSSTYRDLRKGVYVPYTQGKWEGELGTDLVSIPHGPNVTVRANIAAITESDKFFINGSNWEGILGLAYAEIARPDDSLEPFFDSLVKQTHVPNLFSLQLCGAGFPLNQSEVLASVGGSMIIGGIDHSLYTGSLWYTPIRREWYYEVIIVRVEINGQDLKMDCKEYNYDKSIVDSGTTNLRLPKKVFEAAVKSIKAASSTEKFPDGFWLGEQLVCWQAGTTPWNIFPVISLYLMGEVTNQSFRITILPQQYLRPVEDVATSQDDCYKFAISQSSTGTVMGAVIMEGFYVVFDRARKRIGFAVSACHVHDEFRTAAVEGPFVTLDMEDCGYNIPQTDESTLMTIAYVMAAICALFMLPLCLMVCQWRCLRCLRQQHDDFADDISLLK

| Compound | IC50 (human recombinant BACE1) [µM] | IC50 (human recombinant BACE2) [µM] | IC50 [1] [µM] | IC50 (Recombinant Cat D) [µM] |
| --- | --- | --- | --- | --- |
| C#C[C@H](C)Oc1cnc(C(=O)Nc2ccc(F)c([C@@]3(C)N=C(N)S[C@@]4(COC)C[C@H]43)c2)c(C)c1 [Example 649, N-(3-((1S,5S,6S)-3-amino-1-(methoxymethyl)-5-methyl-2-thia-4-azabicyclo[4.1.0]hept-3-en-5-yl)-4-fluorophenyl)-3-methyl-5-(((1S)-1-methyl-2-propyn-1-yl)oxy)-2-pyridinecarboxamide] | 0.0646 | 0.284 | 0.131 | 803 |
| C#C[C@H](C)Oc1cnc(C(=O)Nc2cc(F)c(F)c([C@@]3(C)N=C(N)S[C@@]4(COC)C[C@H]43)c2)c(C)c1 [Example 650, N-(3-((1S,5S,6S)-3-amino-1-(methoxymethyl)-5-methyl-2-thia-4-azabicyclo[4.1.0]hept-3-en-5-yl)-4,5-difluorophenyl)-3-methyl-5-(((1S)-1-methyl-2-propyn-1-yl)oxy)-2-pyridinecarboxamide] | 0.0389 | 0.556 | 0.344 | 777 |
| C#C[C@H](C)Oc1cnc(C(=O)Nc2ccc(F)c([C@@]3(C)N=C(N)S[C@@]4(CF)C[C@H]43)c2)c(C)c1 [Example 651, N-(3-((1S,5S,6S)-3-amino-1-(fluoromethyl)-5-methyl-2-thia-4-azabicyclo[4.1.0]hept-3-en-5-yl)-4-fluorophenyl)-3-methyl-5-(((1S)-1-methyl-2-propyn-1-yl)oxy)-2-pyridinecarboxamide] | 0.0589 | 0.397 | 0.139 | 1030 |
| Cc1cc(OCc2ncco2)cnc1C(=O)Nc1ccc(F)c([C@@]2(C)N=C(N)S[C@@]3(CF)C[C@H]32)c1 [Example 652, N-(3-((1S,5S,6S)-3-amino-1-(fluoromethyl)-5-methyl-2-thia-4-azabicyclo[4.1.0]hept-3-en-5-yl)-4-fluorophenyl)-3-methyl-5-(1,3-oxazol-2-ylmethoxy)-2-pyridinecarboxamide] | 0.00756 | 0.142 | 0.0256 | > 400 |
| C#CCOc1cnc2c(Nc3cnc(F)c([C@@]4(C)N=C(N)S[C@@]5(C(F)F)C[C@@H]45)c3)nccc2n1 [Example 653, N-(5-((1S,5S,6S)-3-amino-1-(difluoromethyl)-5-methyl-2-thia-4-azabicyclo[4.1.0]hept-3-en-5-yl)-6-fluoro-3-pyridinyl)-2-(2-propyn-1-yloxy)pyrido[3,4-b]pyrazin-5-amine] | 0.000544 | 0.0192 | 0.00151 | 260 |
| C[C@]1(c2cc(Nc3nccc4nc(OCc5ncco5)cnc34)cnc2F)N=C(N)S[C@@]2(C(F)F)C[C@@H]12 [Example 654, N-(5-((1S,5S,6S)-3-amino-1-(difluoromethyl)-5-methyl-2-thia-4-azabicyclo[4.1.0]hept-3-en-5-yl)-6-fluoro-3-pyridinyl)-2-(1,3-oxazol-2-ylmethoxy)pyrido[3,4-b]pyrazin-5-amine] | 0.000931 | 0.0291 | 0.00166 | 861 |
| C[C@]1(c2cc(NC(=O)c3ccc(Cl)cn3)cnc2F)N=C(N)S[C@@]2(C(F)F)C[C@@H]12 [Example 655, N-(5-((1S,5S,6S)-3-amino-1-(difluoromethyl)-5-methyl-2-thia-4-azabicyclo[4.1.0]hept-3-en-5-yl)-6-fluoro-3-pyridinyl)-5-chloro-2-pyridinecarboxamide] | 0.00455 | < 0.00203 | 0.006 | 1720 |
| CC(C)NC(=O)c1cnc2c(Nc3cnc(F)c([C@@]4(C)N=C(N)S[C@@]5(C(F)F)C[C@@H]45)c3)nccc2c1 [Example 656, 8-((5-((1S,5S,6S)-3-amino-1-(difluoromethyl)-5-methyl-2-thia-4-azabicyclo[4.1.0]hept-3-en-5-yl)-6-fluoro-3-pyridinyl)amino)-N-(1-methylethyl)-1,7-naphthyridine-3-carboxamide] | 0.387 | 2.35 | 0.624 | 998 |
